For the assay, the target named is T1, Aromatase (Homo sapiens, UniProt P11511).
T1 sequence (P11511 whole entry): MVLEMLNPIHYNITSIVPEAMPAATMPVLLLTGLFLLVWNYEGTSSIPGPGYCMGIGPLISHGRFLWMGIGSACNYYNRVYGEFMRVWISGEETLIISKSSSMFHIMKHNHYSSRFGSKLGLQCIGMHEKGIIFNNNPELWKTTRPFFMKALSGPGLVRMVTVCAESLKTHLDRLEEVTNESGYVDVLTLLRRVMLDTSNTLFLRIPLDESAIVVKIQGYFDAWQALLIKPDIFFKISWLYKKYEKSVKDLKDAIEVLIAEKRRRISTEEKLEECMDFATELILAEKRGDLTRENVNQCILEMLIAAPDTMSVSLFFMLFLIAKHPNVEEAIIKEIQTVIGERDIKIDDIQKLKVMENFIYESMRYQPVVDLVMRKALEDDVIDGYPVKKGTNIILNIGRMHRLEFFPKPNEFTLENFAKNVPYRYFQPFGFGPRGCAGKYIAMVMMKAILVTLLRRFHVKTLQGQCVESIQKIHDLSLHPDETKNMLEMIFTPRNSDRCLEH
The experiment in a line: Inhibition of binding to human Placental Cytochrome P450 19A1.

The compound `C[C@]12CCC3C(CCC4=CC(=O)[C@H]5CC[C@]43C5)C1CCC2=O` (some centres undefined) returned a Ki of 0.07 µM.
Regarding `C[C@]12CCC3C(CCC4=CC(=O)[C@H]5C[C@H](O)[C@]43C5)C1CCC2=O` (single isomer, unassigned), the inhibition constant Ki was 0.926 µM.
The result for `C[C@]12CCC3C(CCC4=CC(=O)[C@H]5C[C@@H](O)[C@]43C5)C1CCC2=O` (single isomer, unassigned) reads 0.87 µM.
The result for `C[C@]12CCC3C(CCC4=CC(=O)CC[C@@]43C(O)CBr)C1CCC2=O` (single isomer, unassigned; 11a) reads 0.027 µM.

These data come from ChEMBL document CHEMBL1125704, “Novel time-dependent inhibitors of human placental aromatase” (J Med Chem, 1991).
